Test results: PubChem BioAssay (NCI)
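Each compound was tested at five concentrations against cells in 96-well plates for 48 hours. TGI: total growth inhibition.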

Assays:
Assay in all cases: NCI tumour cell line growth inhibition, 48 h
DU-145 prostate = test system: DU-145 prostate
NCI-H460 lung = test system: NCI-H460 lung
M19-MEL melanoma = test system: M19-MEL melanoma
DMS 114 small cell lung = test system: DMS 114 small cell lung
KM20L2 colon = test system: KM20L2 colon
SW-620 colon = test system: SW-620 colon
MDA-MB-231 breast = test system: MDA-MB-231 breast
M14 melanoma = test system: M14 melanoma
LOX IMVI melanoma = test system: LOX IMVI melanoma
DLD-1 colon = test system: DLD-1 colon

O=C(c1ccc(F)cc1)c1cccc(C(=O)c2ccc(F)cc2)n1
TGI (DU-145 prostate): > 100 µM | TGI (NCI-H460 lung): > 100 µM | TGI (M19-MEL melanoma): > 100 µM | TGI (DMS 114 small cell lung): 96.4 µM | TGI (KM20L2 colon): > 100 µM | TGI (SW-620 colon): > 100 µM | TGI (MDA-MB-231 breast): > 100 µM | TGI (M14 melanoma): > 100 µM | TGI (LOX IMVI melanoma): > 100 µM | TGI (DLD-1 colon): > 100 µM

CN(C(=O)C12C3C4C5C3C1(C(=O)O)C5C42)C(C)(C)C (centres undefined)
TGI (NCI-H460 lung): > 100 µM | TGI (M19-MEL melanoma): > 100 µM | TGI (DMS 114 small cell lung): 72.6 µM | TGI (KM20L2 colon): > 100 µM | TGI (SW-620 colon): 60.8 µM | TGI (M14 melanoma): > 100 µM | TGI (LOX IMVI melanoma): 65.1 µM | TGI (DLD-1 colon): 55.2 µM

CCOC(=O)C1=C(C)N(Cc2ccccc2)C(C)=C(C(=O)OCC)C1c1ccccc1O
TGI (NCI-H460 lung): > 100 µM | TGI (M19-MEL melanoma): 75.7 µM | TGI (DMS 114 small cell lung): 43.8 µM | TGI (KM20L2 colon): > 100 µM | TGI (SW-620 colon): > 100 µM | TGI (M14 melanoma): > 100 µM | TGI (LOX IMVI melanoma): 39.7 µM | TGI (DLD-1 colon): > 100 µM

CC(=O)NC(CCCNCc1ccccc1)C(=O)NCc1ccccc1 (centres undefined)
TGI (NCI-H460 lung): > 100 µM | TGI (M19-MEL melanoma): > 100 µM | TGI (DMS 114 small cell lung): > 100 µM | TGI (KM20L2 colon): > 100 µM | TGI (SW-620 colon): > 100 µM | TGI (M14 melanoma): > 100 µM | TGI (LOX IMVI melanoma): > 100 µM | TGI (DLD-1 colon): > 100 µM

CCN(CC)CCn1ccc(=O)c2cc3c(=O)ccn(CCN(CC)CC)c3c(C)c21
TGI (DU-145 prostate): 20.7 µM | TGI (NCI-H460 lung): 3.47 µM | TGI (M19-MEL melanoma): 25.2 µM | TGI (DMS 114 small cell lung): 27.6 µM | TGI (KM20L2 colon): 15.4 µM | TGI (SW-620 colon): 5.26 µM | TGI (MDA-MB-231 breast): 18.3 µM | TGI (M14 melanoma): 22.5 µM | TGI (LOX IMVI melanoma): 7.55 µM | TGI (DLD-1 colon): 7.83 µM

O=c1c2c([nH]c3cc4c(cc13)OCO4)-c1ccccc1CC2
TGI (NCI-H460 lung): > 100 µM | TGI (M19-MEL melanoma): > 100 µM | TGI (DMS 114 small cell lung): > 100 µM | TGI (KM20L2 colon): > 100 µM | TGI (SW-620 colon): > 100 µM | TGI (M14 melanoma): > 100 µM | TGI (LOX IMVI melanoma): > 100 µM | TGI (DLD-1 colon): > 100 µM

COc1ccc2c(c1)C(O)(C(F)(F)F)c1cc(C(=O)C(F)(F)F)c3ccccc3c1N2 (centres undefined)
TGI (NCI-H460 lung): 22.3 µM | TGI (M19-MEL melanoma): 28.2 µM | TGI (DMS 114 small cell lung): 22.1 µM | TGI (KM20L2 colon): 13.7 µM | TGI (SW-620 colon): 26.8 µM | TGI (M14 melanoma): 18.1 µM | TGI (LOX IMVI melanoma): 16.5 µM | TGI (DLD-1 colon): 22.4 µM

COc1ccc(-c2cc(=O)c3cc4c(cc3[nH]2)OCO4)c(OC)c1OC
TGI (NCI-H460 lung): > 100 µM | TGI (M19-MEL melanoma): > 100 µM | TGI (DMS 114 small cell lung): > 100 µM | TGI (KM20L2 colon): > 100 µM | TGI (SW-620 colon): > 100 µM | TGI (M14 melanoma): > 100 µM | TGI (LOX IMVI melanoma): > 100 µM | TGI (DLD-1 colon): > 100 µM

CC(C)(C)OC(=O)C#CC[C@H]1CCCC1/C=C/C(O)=C1/C(=O)NC(CCCNC(=O)OC(C)(C)C)C1=O (some centres undefined)
TGI (NCI-H460 lung): 61.6 µM | TGI (M19-MEL melanoma): 67.9 µM | TGI (DMS 114 small cell lung): 61.3 µM | TGI (KM20L2 colon): 53.2 µM | TGI (SW-620 colon): > 100 µM | TGI (M14 melanoma): > 100 µM | TGI (LOX IMVI melanoma): 40.2 µM | TGI (DLD-1 colon): > 100 µM

COC(=O)CCC(NC(=S)N/N=C(\C)c1nccs1)C(=O)OC (centres undefined)
TGI (NCI-H460 lung): > 100 µM | TGI (M19-MEL melanoma): > 100 µM | TGI (DMS 114 small cell lung): 57.5 µM | TGI (KM20L2 colon): > 100 µM | TGI (SW-620 colon): > 100 µM | TGI (M14 melanoma): > 100 µM | TGI (LOX IMVI melanoma): > 100 µM | TGI (DLD-1 colon): > 100 µM
